Results from ChEMBL document CHEMBL3352464, “X-ray crystallographic analysis of IMP-1 metallo-β-lactamase complexed with a 3-aminophthalic acid derivative, structure-based drug design, and synthesis of 3,6-disubstituted phthalic acid derivative inhibitors” (Bioorg Med Chem Lett, 2014).

What was measured:
[1] = system: Pseudomonas aeruginosa; experiment: Inhibition of IMP-1 in mexAB-deficient Pseudomonas aeruginosa KG5002/pMS363 assessed as MIC of BIPM at 50 ug/ml by microbroth dilution method
[2] = Inhibition of carbapenems-resistant Pseudomonas aeruginosa PAO1/pMS363 IMP-1 using nitrocefin as substrate after 20 mins by spectrophotometric analysis
[3] = system: Pseudomonas aeruginosa; experiment: Inhibition of IMP-1 in Pseudomonas aeruginosa PAO1/pMS363 assessed as MIC of BIPM at 50 ug/ml by microbroth dilution method

Structure (SMILES)	MIC [1] [µg/mL]	IC50 [2] [nM]	MIC [3] [µg/mL]
Cc1ccc(N2CCC(O)CC2)c(C(=O)O)c1C(=O)O	< 0.25	700	1
O=C(O)c1c(N2CCC(O)CC2)ccc(N2CCC(O)CC2)c1C(=O)O	< 0.25	270	0.5
O=C(O)c1c(F)ccc(N2CCC(O)CC2)c1C(=O)O	1	17500	2
CN(C)c1ccc(N2CCC(O)CC2)c(C(=O)O)c1C(=O)O	< 0.25	4100	1
O=C(O)c1cccc(N2CCC(O)CC2)c1C(=O)O	< 0.25	2700	1
